Data on 23 molecules can be found in ChEMBL document CHEMBL4476883, “Hydroxy formamide derivatives and their use” (2017).

One test concerns the target Tolloid-like protein 1 (Homo sapiens, UniProt O43897, I156V/N221S/V284A). Kind of test: Inhibition of recombinant human TLL1 I156V/N221S/V284A mutant expressed in CHOE1A cells pre-incubated for 10 mins before promyostatin peptide substrate addition and measured after 60 mins by FRET based assay. The class given is cell-based.
The target of test [1] is T1, Bone morphogenetic protein 1 (Homo sapiens, UniProt P13497).
T1 sequence (P13497 whole entry): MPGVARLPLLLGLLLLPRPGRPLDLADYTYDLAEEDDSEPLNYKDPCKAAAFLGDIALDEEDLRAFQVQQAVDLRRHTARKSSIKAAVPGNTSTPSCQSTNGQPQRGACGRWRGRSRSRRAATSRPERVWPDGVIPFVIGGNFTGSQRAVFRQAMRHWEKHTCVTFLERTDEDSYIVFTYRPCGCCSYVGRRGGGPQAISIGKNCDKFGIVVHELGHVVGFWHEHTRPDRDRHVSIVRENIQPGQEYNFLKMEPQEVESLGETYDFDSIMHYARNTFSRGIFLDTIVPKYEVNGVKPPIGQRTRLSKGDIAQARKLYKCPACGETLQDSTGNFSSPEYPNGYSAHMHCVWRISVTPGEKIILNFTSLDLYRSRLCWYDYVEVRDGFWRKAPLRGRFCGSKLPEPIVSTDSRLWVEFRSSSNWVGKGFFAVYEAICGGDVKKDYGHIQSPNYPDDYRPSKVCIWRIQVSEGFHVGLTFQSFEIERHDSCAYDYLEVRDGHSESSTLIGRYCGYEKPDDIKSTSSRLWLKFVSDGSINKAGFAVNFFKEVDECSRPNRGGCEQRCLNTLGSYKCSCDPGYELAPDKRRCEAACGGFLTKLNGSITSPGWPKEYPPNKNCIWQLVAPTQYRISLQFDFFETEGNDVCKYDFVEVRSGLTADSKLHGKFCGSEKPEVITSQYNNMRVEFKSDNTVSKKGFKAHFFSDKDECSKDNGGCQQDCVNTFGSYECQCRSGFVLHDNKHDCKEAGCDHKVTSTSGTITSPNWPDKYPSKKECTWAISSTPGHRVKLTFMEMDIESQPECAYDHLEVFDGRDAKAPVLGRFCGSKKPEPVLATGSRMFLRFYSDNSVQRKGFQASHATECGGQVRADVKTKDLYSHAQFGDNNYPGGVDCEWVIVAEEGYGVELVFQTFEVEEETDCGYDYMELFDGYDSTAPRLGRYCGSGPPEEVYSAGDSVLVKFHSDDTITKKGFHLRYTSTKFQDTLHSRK
Kind of test: Inhibition of C-terminal FLAG-6x-His epitope tagged and N-terminal human RAGE signal sequence tagged human BMP1 (23 to 721 amino acids) expressed in CHO-E1A cells pre-incubated for 10 mins before promyostatin peptide substrate addition and measured after 60 mins using 0.5 nM BMP1 by FRET based assay. In kind it is cell-based.

Test [2] has as its target T1, Bone morphogenetic protein 1. The test is described as follows: Inhibition of C-terminal FLAG-6x-His epitope tagged and N-terminal human RAGE signal sequence tagged human BMP1 (23 to 721 amino acids) expressed in CHO-E1A cells pre-incubated for 10 mins before promyostatin peptide substrate addition and measured after 30 mins using 50 nM BMP1 by FRET based assay. In kind it is cell-based.

The target in another test is T2, Tolloid-like protein 2 (Homo sapiens, UniProt Q9Y6L7).
T2 sequence (Q9Y6L7 whole entry): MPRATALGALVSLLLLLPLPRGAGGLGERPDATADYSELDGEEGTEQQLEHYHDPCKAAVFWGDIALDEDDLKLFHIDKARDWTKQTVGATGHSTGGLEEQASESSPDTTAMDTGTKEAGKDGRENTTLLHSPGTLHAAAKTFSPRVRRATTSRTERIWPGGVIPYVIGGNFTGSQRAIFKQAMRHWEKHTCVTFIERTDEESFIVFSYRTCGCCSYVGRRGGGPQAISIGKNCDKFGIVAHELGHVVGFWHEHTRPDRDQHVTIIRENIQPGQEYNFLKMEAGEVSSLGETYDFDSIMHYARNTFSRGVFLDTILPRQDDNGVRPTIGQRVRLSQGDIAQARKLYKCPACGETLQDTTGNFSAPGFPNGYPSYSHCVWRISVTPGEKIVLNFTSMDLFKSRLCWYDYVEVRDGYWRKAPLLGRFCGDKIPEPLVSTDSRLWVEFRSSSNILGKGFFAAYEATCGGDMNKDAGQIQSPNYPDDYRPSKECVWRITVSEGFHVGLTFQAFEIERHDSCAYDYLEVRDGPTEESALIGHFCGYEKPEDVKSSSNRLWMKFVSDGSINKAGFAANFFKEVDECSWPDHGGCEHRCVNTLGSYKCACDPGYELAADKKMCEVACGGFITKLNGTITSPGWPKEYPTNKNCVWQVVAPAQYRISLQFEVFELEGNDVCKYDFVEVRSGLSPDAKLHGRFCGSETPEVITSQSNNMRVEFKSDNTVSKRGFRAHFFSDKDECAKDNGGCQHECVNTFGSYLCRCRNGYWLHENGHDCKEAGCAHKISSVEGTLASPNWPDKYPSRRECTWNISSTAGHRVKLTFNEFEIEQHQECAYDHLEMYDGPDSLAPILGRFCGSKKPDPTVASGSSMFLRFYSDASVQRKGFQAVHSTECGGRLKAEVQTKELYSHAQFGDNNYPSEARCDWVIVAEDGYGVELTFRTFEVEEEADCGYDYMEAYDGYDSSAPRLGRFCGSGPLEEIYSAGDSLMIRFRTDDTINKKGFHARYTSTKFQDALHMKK
The test is described as follows: Inhibition of C-terminal Avi-6x-His epitope tagged and N-terminal human RAGE signal sequence tagged recombinant human TLL2 (26 to 1015 amino acids) expressed in CHOE1A cells incubated for 60 mins with promyostatin peptide substrate by FRET based assay. In kind it is cell-based.

A short description of test [3]: Reduction in PICP levels in human cardiac fibroblasts incubated for 24 to 48 hrs by ELISA. The class given is functional. (In an ELISA, binding on a coated surface is turned into a signal by an enzyme label.)

Tolloid-like protein 1, sequence (O43897 148-1013 I156V/N221S/V284A limits assumed): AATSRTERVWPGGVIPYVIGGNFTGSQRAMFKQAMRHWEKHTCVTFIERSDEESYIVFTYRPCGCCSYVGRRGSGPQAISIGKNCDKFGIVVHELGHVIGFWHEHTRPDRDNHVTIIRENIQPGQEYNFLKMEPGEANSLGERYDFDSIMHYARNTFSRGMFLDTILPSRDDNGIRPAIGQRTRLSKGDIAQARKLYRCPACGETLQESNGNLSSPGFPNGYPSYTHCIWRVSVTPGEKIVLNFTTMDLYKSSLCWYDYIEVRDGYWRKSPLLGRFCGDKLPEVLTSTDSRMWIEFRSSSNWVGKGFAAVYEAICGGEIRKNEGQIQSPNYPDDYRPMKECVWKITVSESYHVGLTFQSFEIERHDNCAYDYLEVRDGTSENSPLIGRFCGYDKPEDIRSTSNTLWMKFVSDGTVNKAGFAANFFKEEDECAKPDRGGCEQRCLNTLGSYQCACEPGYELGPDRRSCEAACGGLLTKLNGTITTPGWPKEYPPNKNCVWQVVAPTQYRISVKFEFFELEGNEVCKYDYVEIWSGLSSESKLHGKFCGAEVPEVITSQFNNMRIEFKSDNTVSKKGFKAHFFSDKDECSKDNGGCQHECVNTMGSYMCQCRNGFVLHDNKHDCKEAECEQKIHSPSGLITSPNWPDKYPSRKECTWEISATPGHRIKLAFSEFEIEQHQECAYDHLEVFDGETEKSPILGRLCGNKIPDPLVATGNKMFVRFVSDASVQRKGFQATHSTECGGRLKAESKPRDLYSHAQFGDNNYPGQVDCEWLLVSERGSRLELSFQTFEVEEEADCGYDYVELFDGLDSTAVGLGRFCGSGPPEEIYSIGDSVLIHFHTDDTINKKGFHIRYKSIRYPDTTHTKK

One may read the IC50 as the point on the concentration scale where inhibition reaches its midpoint. As for `O=CN(O)C[C@@H](CC1CCCC1)C(=O)NCNC(=O)c1cccc(-c2cccc(C(F)(F)F)c2)c1`, the half-maximal inhibitory concentration (IC50) at Tolloid-like protein 1 was below 398 nM; in test [1], below 126 nM; in test [2], below 251 nM; at Tolloid-like protein 2, below 631 nM; in test [3] it was below 20000 nM.

Turning to `CCCCC[C@H](CN(O)C=O)C(=O)NCNC(=O)c1cccc(-c2cccc(OC)c2)c1`, the IC50 is below 398 nM at Tolloid-like protein 1; below 126 nM in test [1]; below 251 nM in test [2]; below 631 nM at Tolloid-like protein 2; below 20000 nM in test [3].

Consider `CCCCC[C@H](CN(O)C=O)C(=O)NCNC(=O)c1cccc(-c2cc(OC)nnc2OC)c1`, for which the IC50 at Tolloid-like protein 1 was below 398 nM; in test [1], below 126 nM; in test [2], below 251 nM; at Tolloid-like protein 2, below 631 nM; in test [3] it was below 20000 nM.

`CCCCC[C@H](CN(O)C=O)C(=O)NCNC(=O)c1cccc(-c2ccc(F)cc2)c1`: the IC50 at Tolloid-like protein 1 was below 398 nM; in test [1] it was below 126 nM; in test [2], below 251 nM; at Tolloid-like protein 2, below 631 nM; in test [3], below 20000 nM.

In the case of `CCOc1cccc(-c2cccc(C(=O)NCNC(=O)[C@H](CC3CCCC3)CN(O)C=O)c2)c1`, the IC50 is below 398 nM on Tolloid-like protein 1; below 126 nM in test [1]; below 251 nM in test [2]; below 631 nM on Tolloid-like protein 2; below 20000 nM in test [3].

Regarding `CCCCC[C@H](CN(O)C=O)C(=O)NCNC(=O)c1cccc(-c2ncc(C)o2)c1`, the IC50 was below 398 nM on Tolloid-like protein 1; below 126 nM in test [1]; below 251 nM in test [2]; below 631 nM at Tolloid-like protein 2; below 20000 nM in test [3].

As to `CCCCC[C@H](CN(O)C=O)C(=O)NCNC(=O)c1cccc(-c2cccc(OC(C)C)c2)c1`, the IC50 was below 398 nM at Tolloid-like protein 1; below 126 nM in test [1]; below 251 nM in test [2]; below 631 nM on Tolloid-like protein 2; below 20000 nM in test [3].

In the case of `CCCCC[C@H](CN(O)C=O)C(=O)NCNC(=O)c1cccc(-c2cccc(C(C)C)c2)c1`, the IC50 on Tolloid-like protein 1 is below 398 nM; in test [1], below 126 nM; in test [2], below 251 nM; at Tolloid-like protein 2 it was below 631 nM; in test [3], below 20000 nM.

For the molecule `CCc1cccc(-c2cccc(C(=O)NCNC(=O)[C@H](CC3CCCC3)CN(O)C=O)c2)c1`, the 50% inhibitory concentration (IC50) at Tolloid-like protein 1 was below 398 nM; in test [1] it was below 126 nM; in test [2], below 251 nM; at Tolloid-like protein 2 it was below 631 nM; in test [3], below 20000 nM.

Turning to `CCCCC[C@H](CN(O)C=O)C(=O)NCNC(=O)c1cccc(-c2cccc(O)c2)c1`, the half-inhibitory concentration (IC50) is below 398 nM on Tolloid-like protein 1; below 126 nM in test [1]; below 251 nM in test [2]; below 631 nM at Tolloid-like protein 2; below 20000 nM in test [3].

Turning to `CCCCC[C@H](CN(O)C=O)C(=O)NCNC(=O)c1cccc(-c2cc(OC)ccc2OC)c1`, the 50% inhibitory concentration (IC50) at Tolloid-like protein 1 was below 398 nM; in test [1] it was below 126 nM; in test [2] it was below 251 nM; at Tolloid-like protein 2, below 631 nM; in test [3], below 20000 nM.

Turning to `CCCCC[C@H](CN(O)C=O)C(=O)NCNC(=O)c1cccc(-c2cccc(F)c2)c1`, the IC50 on Tolloid-like protein 1 was below 398 nM; in test [1], below 126 nM; in test [2] it was below 251 nM; on Tolloid-like protein 2 it was below 631 nM; in test [3], below 20000 nM.

Turning to `COc1cncc(-c2cccc(C(=O)NCNC(=O)[C@H](CC3CCCC3)CN(O)C=O)c2)c1`, the IC50 on Tolloid-like protein 1 is below 398 nM; in test [1], below 126 nM; in test [2], below 251 nM; on Tolloid-like protein 2 it was below 631 nM; in test [3] it was below 20000 nM.

Consider `CCCCC[C@@H](C(=O)NCNC(=O)c1cccc(-c2ccc(C(=O)O)cc2C)n1)[C@@H](CC)N(O)C=O`, for which the IC50 at Tolloid-like protein 1 is below 398 nM; in test [1], below 126 nM; in test [2], below 251 nM; on Tolloid-like protein 2, below 631 nM; in test [3] it was below 20000 nM.

Turning to `CCCCC[C@H](CN(O)C=O)C(=O)NCNC(=O)c1cccc(-c2cncc(OC)c2)c1`, the IC50 at Tolloid-like protein 1 was below 398 nM; in test [1] it was below 126 nM; in test [2], below 251 nM; at Tolloid-like protein 2, below 631 nM; in test [3], below 20000 nM.

In the case of `CCCCC[C@H](CN(O)C=O)C(=O)NCNC(=O)c1cccc(-c2nnn[nH]2)c1`, the IC50 at Tolloid-like protein 1 is below 398 nM; in test [1], below 126 nM; in test [2], below 251 nM; at Tolloid-like protein 2, below 631 nM; in test [3], below 20000 nM.

As to `COc1cc(-c2cccc(C(=O)NCNC(=O)[C@H](CCc3ccccc3)CN(O)C=O)c2)c(OC)nn1`, the IC50 at Tolloid-like protein 1 is below 398 nM; in test [1] it was below 126 nM; in test [2], below 251 nM; at Tolloid-like protein 2, below 631 nM; in test [3], below 20000 nM.

On to `O=CN(O)C[C@@H](CC1CCCC1)C(=O)NCNC(=O)c1cccc(-c2ccccc2)c1`, for which the IC50 at Tolloid-like protein 1 was below 398 nM; in test [1], below 126 nM; in test [2] it was below 251 nM; at Tolloid-like protein 2, below 631 nM; in test [3], below 20000 nM.

On to `O=CN(O)C[C@@H](CC1CCCC1)C(=O)NCNC(=O)c1cccc(-c2cccc(OC(F)(F)F)c2)c1`, for which the concentration for half-maximal inhibition (IC50) at Tolloid-like protein 1 is below 398 nM; in test [1], below 126 nM; in test [2], below 251 nM; on Tolloid-like protein 2 it was below 631 nM; in test [3] it was below 20000 nM.

In the case of `CCCCC[C@@H](C(=O)NCNC(=O)c1cccc(-c2cc(OCC)cc(C(=O)O)c2)c1)[C@@H](CC)N(O)C=O`, the IC50 is below 398 nM on Tolloid-like protein 1; below 126 nM in test [1]; below 251 nM in test [2]; below 631 nM on Tolloid-like protein 2; below 20000 nM in test [3].

For `O=CN(O)C[C@@H](CC1CCCC1)C(=O)NCNC(=O)c1cccc(-c2cccc(O)c2)c1`, the IC50 on Tolloid-like protein 1 is below 398 nM; in test [1] it was below 126 nM; in test [2] it was below 251 nM; on Tolloid-like protein 2, below 631 nM; in test [3], below 20000 nM.

With `COc1cc(OC)cc(-c2cccc(C(=O)NCNC(=O)[C@H](CC3CCCC3)CN(O)C=O)c2)c1`, the IC50 is below 398 nM on Tolloid-like protein 1; below 126 nM in test [1]; below 251 nM in test [2]; below 631 nM on Tolloid-like protein 2; below 20000 nM in test [3].

Turning to `O=CN(O)C[C@@H](CC1CCCC1)C(=O)NCNC(=O)c1cccc(Oc2ccccc2)c1`, the IC50 at Tolloid-like protein 1 is below 398 nM; in test [1] it was below 126 nM; in test [2], below 251 nM; at Tolloid-like protein 2, below 631 nM; in test [3] it was below 20000 nM.
